Measured values reported in publication PMC6523531, “Mechanistic Studies on the Absorption-Enhancing Effects of Gemini Surfactant on the Intestinal Absorption of Poorly Absorbed Hydrophilic Drugs in Rats” (Pharmaceutics, 2019).

Legend:
claudin-1 = test: Western blotting of claudin-1 in rat small intestine after in situ treatment; format: in vivo; conditions: treatment with 0.5% (v/v) SLG-30 for 1 h, vs control
Method: (§1) Western blotting was performed by the method described previously with slight modifications. Three male Wistar rats weighing 250 g were prepared to perform an in situ closed-loop method on the small intestine, as mentioned above. A control study, a treatment study, and a pretreatment study were conducted on the first, second, and third rat, respectively. For the control study, only PBS solution (pH 7.4) was administered into the small intestine, and then, the rat was sacrificed, while for the treatment study, SLG-30 was administered for 1 h, and then, the rat was sacrificed without washing the SLG-30 out. The pretreatment study was performed by administrating SLG-30 for 1 h then washing it out with PBS solution (pH 7.4), followed by sacrificing the rat after 4 h. The small intestine (60 cm) of three rats was taken and treated, as mentioned above, for extracting the BBMVs. […]
(§2) The expression levels of proteins from the claudin family, in the homogenate of the small intestine membrane, were evaluated by western blotting. […] The signals were visualized by luminescence imaging (Fujifilm Luminescent Image Analyzer LAS4000 System, Tokyo, Japan). The intensity of each signal was corrected using the values obtained from the β-actin bands, and the relative protein intensity was expressed as the fold change compared to the relative protein intensity in the normal group.

claudin-4 = test: Western blotting of claudin-4 in rat small intestine after in situ treatment; format: in vivo
Method: as §1, §2

CCCCCCCCCCCC(=O)NC(CCC(=O)NCCCCC(NC(=O)CCC(NC(=O)CCCCCCCCCCC)C(=O)O)C(=O)O)C(=O)O (stereo not drawn) [SLG-30, sodium dilauramidoglutamide lysine]
decrease of the intensity of the claudin-1 band (claudin-1): 57% | claudin-4 expression level less than the control (claudin-4; pretreatment study: 0.5% (v/v) SLG-30 for 1 h, washed out, proteins extracted after 4 h): ~45% | decrease of the intensity of the claudin-4 band (claudin-4; treatment with 0.5% (v/v) SLG-30 for 1 h, rat small intestine, vs control): 64%
